# Reference: patent publication US11654136B2, “Phosphoinositide 3-kinase inhibitor with a zinc binding moiety” (Curis, Inc., priority 2011, dated 2023)
# Like-named read-outs stand apart in the source and are kept apart here.
# Columns and labels:
# [1] = test system: Salmonella typhimurium TA100; conditions: for Revertants per well TA100, Mean: * positive increase
# Description: (§1) The tester strains used in the mutagenicity assay were Salmonella typhimurium tester strains TA98 (for detecting frame-shift reverse mutation) and TA100 (for detecting point reverse mutation). The assay was conducted in both the presence and absence of S9 mixture along with concurrent vehicle (DMSO, 20 μl/well) and positive controls in duplicate using 6-well plates. […] A reproducible two-fold increase (>2× of vehicle control) of revertant colonies over the daily average control value is considered a positive response of gene mutation for each strain.
# (§2) 2-nitrofluorene and sodium azide served as the positive controls in the absence of S9 for TA98 and TA100 respectively. 2-Aminoanthracene served as the positive controls in the presence of S9 for TA98 and TA100.
# [2] = test system: Salmonella typhimurium TA98; experiment: Mini-Salmonella/mammalian-microsome reverse mutation assay TA98; conditions: for Revertants per well TA98, Mean: * positive increase
# Description: as §1, §2
# [3] = test system: Raf, MEK, and ERK; experiment: Western blot of RAF-MEK-ERK pathway in H460, A375, BT-474 and H1975 cells; format: cell-based; conditions: 100 nM, 16 hours
# Description: Cell extracts were prepared in the presence of SDS and 2-mercaptoethanol and resolved in polyacrylamide gels. Proteins were transferred to nitrocellulose filter and blotting was done using standard procedures with blocking solutions (Li-Cor Bioscience) containing the indicated primary antibody. Primary antibodies against p-EGFR, EGFR, p-HER2, HER2, p-HER3, HER3, p-MET, MET, p-bRaf, p-cRaf, pMEK, MEK, p-ERK, ERK and tubulin were purchased from Cell Signaling Technology. Secondary antibody conjugated with IRdye 680, 800CW were used and the signal was detected with Li-Cor Odyssey Imager.
# One major limitation of PI3K inhibitors in the treatment of cancers is the activation of the RAF-MEK-ERK pathway. HDAC inhibitors are able to inhibit kinase levels in this signaling pathway in cancer cells via epigenetic modification.
# [4] = +S9, positive control 0.8 μg/well
# [5] = −S9, positive control 0.4 μg/well
# [6] = −S9, positive control 2.0 μg/well
structure (smiles),measurement,setting,value
"Nc1ccc2cc3ccccc3cc2c1 [2-aminoanthracene, reference compound]",Background Lawn TA100,[1]; [4],4/4
same,"Revertants per well TA100, well 1",[1]; [4],>300
same,"Revertants per well TA100, well 2",[1]; [4],>300
same,"Revertants per well TA100, Mean",[1]; [4],>300*
same,Background Lawn TA98,[2]; [4],4/4
same,"Revertants per well TA98, well 1",[2]; [4],>300
same,"Revertants per well TA98, well 2",[2]; [4],>300
same,"Revertants per well TA98, Mean",[2]; [4],>300*
"O=[N+]([O-])c1ccc2c(c1)Cc1ccccc1-2 [2-nitrofluorene, reference compound]",Background Lawn TA98,[2]; [5],4/4
same,"Revertants per well TA98, well 1",[2]; [5],55
same,"Revertants per well TA98, well 2",[2]; [5],63
same,"Revertants per well TA98, Mean",[2]; [5],59*
"Cc1[nH]c2ccccc2c1CCNCc1ccc(/C=C/C(=O)NO)cc1 [LBH 589, reference compound]","Activation of Raf, MEK, and ERK",[3],showed similar activities in some of these Western blot assays
"[N-]=[N+]=[N-] [Sodium azide, reference compound]",Background Lawn TA100,[1]; [6],4/4
same,"Revertants per well TA100, well 1",[1]; [6],>300
same,"Revertants per well TA100, well 2",[1]; [6],>300
same,"Revertants per well TA100, Mean",[1]; [6],>300*
